Measurements as given in US9303045B2, “5-HT3 receptor antagonists” (Takeda Pharmaceutical Company Limited, priority 2013, dated 2016).

target: 5HT3a receptor expressed in HEK-293T cells (Homo sapiens (Human), UniProt P46098); assay: Inhibition of Ca flux activity of 5HT3 in vitro assay; format: cell-based; settings: calcium flux, 5HT 216 nM, approximate values
Protocol: Inhibition of Ca Flux Activity of 5HT3 In Vitro Assay
The 5HT3 antagonist activity of the compounds of the invention was determined by measuring the ability of the compounds to inhibit the calcium flux activity of […] receptor expressed in HEK-293T cells. HEK-293T cells were transfected with the 5HT3a expression construct using Xtreme Gene 9 (Roche) in 150 mm tissue culture treated plates and incubated for 24 hours at 37° C. Cells were then split and plated at a density of 60K cells/well in poly-lysine coated, black 96-well plates with clear bottoms (BD BioSciences) and incubated overnight at 37° C. Growth media was removed and cells loaded with 200 uL calcium indicator dye in HBSS containing 20 mM HEPES (Calcium 5 Assay kit, Molecular Devices) and incubated at 37° C. for 1 hour. While cells were incubating, the 10× antagonist and agonist/antagonist addition plates were made. For 10× antagonist plate: half log serial dilutions (final concentrations range from 10^−7 through 10^−10 with the bottom well a negative, no ligand control) were made from test compounds in DMSO at a 1000× concentration and then diluted to 10× in HBSS/20 mM HEPES. For addition plate: 5HT was diluted to 100× in HBSS/20 mM HEPES (final concentration in the assay—216 nM) and 15 uL was added to each well of the addition plate, 15 uL of 10× compound was also added to the addition plate, and finally 120 uL of HBSS/20 mM HEPES (for a total of 150 uL). Cells were then removed from the incubator and equilibrated to room temperature for 10 minutes, then 22.5 uL of 10× test compounds were added in triplicate to the plates and incubated at room temperature for 10 minutes (Tropisetron was used as a positive control in every assay). Test plate and addition plate were loaded into the FlexStation III (Molecular Devices), and using the fluidics, 22.5 uL compound additions were made (at t=˜17 seconds), and fluorescence was measured for 90 seconds, reading every 2.2 seconds. Data sets were analyzed as max minus min using Software Max Pro (Molecular Devices). IC50 curves were generated using non-linear regression in GraphPad Prism.

Chain of 5HT3a receptor expressed in HEK-293T cells (P46098 24-478): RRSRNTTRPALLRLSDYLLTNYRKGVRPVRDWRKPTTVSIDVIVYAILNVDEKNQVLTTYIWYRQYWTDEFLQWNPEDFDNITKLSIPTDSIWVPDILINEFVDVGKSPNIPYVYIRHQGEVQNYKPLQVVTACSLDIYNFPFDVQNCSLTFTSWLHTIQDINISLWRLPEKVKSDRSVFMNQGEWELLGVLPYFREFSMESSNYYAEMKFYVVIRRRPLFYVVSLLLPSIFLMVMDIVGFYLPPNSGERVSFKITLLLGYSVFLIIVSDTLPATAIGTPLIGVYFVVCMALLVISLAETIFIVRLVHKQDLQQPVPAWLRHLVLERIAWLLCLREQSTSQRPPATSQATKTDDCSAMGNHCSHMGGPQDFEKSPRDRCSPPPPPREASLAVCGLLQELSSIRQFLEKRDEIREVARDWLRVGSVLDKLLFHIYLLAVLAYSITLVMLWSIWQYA

| Structure (SMILES) | IC50 [nM] |
| --- | --- |
| CN1[C@@H]2CC[C@H]1CC(OC(=O)c1cn(CC(F)(F)F)c3ccccc13)C2 (stereo partly drawn) [Example 95, (1R,3R,5S)-8-methyl-8-azabicyclo[3.2.1]octan-3-yl 1-(2,2,2-trifluoroethyl)-1H-indole-3-carboxylate, 2,2,2-trifluoroacetate] | 0.89 |
| CN1C2CCC1CC(OC(=O)c1cn([C@H]3CCOC3)c3ccccc13)C2 (stereo partly drawn) [Example 96, (1R,3R,5S)-8-methyl-8-azabicyclo[3.2.1]octan-3-yl 1-((S)-tetrahydrofuran-3-yl)-1H-indole-3-carboxylate, 2,2,2-trifluoroacetate] | 0.83 |
| CN1[C@@H]2CCC[C@H]1CC(NC(=O)c1cn(CC(F)F)c3ccc(F)cc13)C2 (stereo partly drawn) [Example 98, 1-(2,2-difluoroethyl)-5-fluoro-N-((1R,3R,5S)-9-methyl-9-azabicyclo[3.3.1]nonan-3-yl)-1H-indole-3-carboxamide, 2,2,2-trifluoroacetate] | 5.45 |
| CN1[C@@H]2COC[C@H]1CC(OC(=O)c1cn(S(C)(=O)=O)c3ccc(F)cc13)C2 (stereo partly drawn) [Example 99, (1R,5S,7S)-9-methyl-3-oxa-9-azabicyclo[3.3.1]nonan-7-yl 5-fluoro-1-(methylsulfonyl)-1H-indole-3-carboxylate, 2,2,2-trifluoroacetate] | 0.29 |
| CN1[C@@H]2CCC[C@H]1CC(NC(=O)c1cn(S(C)(=O)=O)c3ccc(F)cc13)C2 (stereo partly drawn) [Example 100, 5-fluoro-N-((1R,3R,5S)-9-methyl-9-azabicyclo[3.3.1]nonan-3-yl)-1-(methylsulfonyl)-1H-indole-3-carboxamide, 2,2,2-trifluoroacetate] | 12.8 |
| O=C(OC1CC2COCC(C1)N2)c1cn(CC(F)F)c2ncccc12 [Example 101, (1R,5S,7S)-3-oxa-9-azabicyclo[3.3.1]nonan-7-yl 1-(2,2-difluoroethyl)-1H-pyrrolo[2,3-b]pyridine-3-carboxylate, 2,2,2-trifluoroacetate] | > 1000 |
| CN1C2CCC1CC(NC(=O)c1cn(CC(F)(F)F)c3ncccc13)C2 [Example 102, N-((1R,3R,5S)-8-methyl-8-azabicyclo[3.2.1]octan-3-yl)-1-(2,2,2-trifluoroethyl)-1H-pyrrolo[2,3-b]pyridine-3-carboxamide, 2,2,2-trifluoroacetate] | > 1000 |
| CN1[C@@H]2CCC[C@H]1CC(OC(=O)c1cn(CC(F)(F)F)c3ncccc13)C2 (stereo partly drawn) [Example 103, (1R,3R,5S)-9-methyl-9-azabicyclo[3.3.1]nonan-3-yl 1-(2,2,2-trifluoroethyl)-1H-pyrrolo[2,3-b]pyridine-3-carboxylate, 2,2,2-trifluoroacetate] | 8.2 |
| O=C(NC1CC2COCC(C1)N2C(F)(F)F)c1cn(CC(F)F)c2ncccc12 [Example 104, 1-(2,2-difluoroethyl)-N-((1R,5S,7S)-9-(trifluoromethyl)-3-oxa-9-azabicyclo[3.3.1]nonan-7-yl)-1H-pyrrolo[2,3-b]pyridine-3-carboxamide, 2,2,2-trifluoroacetate] | > 1000 |
| O=C(NC1C[C@H]2COC[C@@H](C1)N2)c1cn(CC(F)(F)F)c2ncc(F)cc12 (stereo partly drawn) [Example 105, N-((1R,5S,7S)-3-oxa-9-azabicyclo[3.3.1]nonan-7-yl)-5-fluoro-1-(2,2,2-trifluoroethyl)-1H-pyrrolo[2,3-b]pyridine-3-carboxamide, 2,2,2-trifluoroacetate] | 34.1 |
| CN1[C@@H]2COC[C@H]1CC(NC(=O)c1cn(-c3ncccn3)c3ccccc13)C2 (stereo partly drawn) [Example 107, N-((1R,5S,7S)-9-methyl-3-oxa-9-azabicyclo[3.3.1]nonan-7-yl)-1-(pyrimidin-2-yl)-1H-indole-3-carboxamide, 2,2,2-trifluoroacetate] | 1.1 |
| CN1[C@@H]2COC[C@H]1CC(NC(=O)c1cn(CC(C)(F)F)c3ncccc13)C2 (stereo partly drawn) [Example 108, 1-(2,2-difluoropropyl)-N-((1R,5S,7S)-9-methyl-3-oxa-9-azabicyclo[3.3.1]nonan-7-yl)-1H-pyrrolo[2,3-b]pyridine-3-carboxamide, 2,2,2-trifluoroacetate] | 1.05 |
| CN1[C@@H]2COC[C@H]1CC(NC(=O)c1cn(CC(F)F)c3ncc(F)cc13)C2 (stereo partly drawn) [Example 109, 1(2,2-difluoroethyl)-5-fluoro-N-((1R,5S,7S)-9-methyl-d3-3-oxa-9-azabicyclo[3.3.1]nonan-7-yl)-1H-pyrrolo[2,3-b]pyridine-3-carboxamide] | 1.11 |
| CC(C)S(=O)(=O)n1cc(C(=O)NC2C[C@H]3COC[C@@H](C2)N3C)c2ccccc21 (stereo partly drawn) [Example 111, N-((1R,5S,7S)-9-methyl-d3-3-oxa-9-azabicyclo[3.3.1]nonan-7-yl)-1-(isopropylsulfonyl)-1H-indole-3-carboxamide, 2,2,2-trifluoroacetate] | 0.77 |
| CN1[C@@H]2COC[C@H]1CC(NC(=O)c1cn(CC(F)(F)F)c3ccc(F)cc13)C2 (stereo partly drawn) [Example 112, 1-(2,2,2-trifluoroethyl)-5-fluoro-N-((1R,5S,7S)-9-methyl-d3-3-oxa-9-azabicyclo[3.3.1]nonan-7-yl)-1H-indole-3-carboxamide, 2,2,2-trifluoroacetate] | 0.53 |
| CN1[C@@H]2COC[C@H]1CC(NC(=O)c1cn(CC(F)F)c3ccc(F)cc13)C2 (stereo partly drawn) [Example 113, 1-(2,2-difluoroethyl)-5-fluoro-N-((1R,5S,7S)-9-methyl-d3-3-oxa-9-azabicyclo[3.3.1]nonan-7-yl)-1H-indole-3-carboxamide, 2,2,2-trifluoroacetate] | 0.23 |
| O=C(N[C@@H]1CN2CCC1CC2)c1cn(CC(F)F)c2ncccc12 [Example 116, (S)-1-(2,2-difluoroethyl)-N-(quinuclidin-3-yl)-1H-pyrrolo[2,3-b]pyridine-3-carboxamide, 2,2,2-trifluoroacetate] | > 1000 |
| CN1[C@@H]2COC[C@H]1CC(NC(=O)c1cn(-c3cccnn3)c3ccccc13)C2 (stereo partly drawn) [Example 117, N-((1R,5S,7S)-9-methyl-3-oxa-9-azabicyclo[3.3.1]nonan-7-yl)-1-(pyridazin-3-yl)-1H-indole-3-carboxamide, 2,2,2-trifluoroacetate] | 0.39 |
| CN1C2COCC1CC(NC(=O)c1cn(-c3nccs3)c3ccccc13)C2 [Example 118, N-((1R,5S,7S)-9-methyl-3-oxa-9-azabicyclo[3.3.1]nonan-7-yl)-1-(thiazol-2-yl)-1H-indole-3-carboxamide, 2,2,2-trifluoroacetate] | 0.86 |
| CN1C2COCC1CC(NC(=O)c1cn(-c3cncnc3)c3ccccc13)C2 [Example 120, N-((1R,5S,7S)-9-methyl-3-oxa-9-azabicyclo[3.3.1]nonan-7-yl)-1-(pyrimidin-5-yl)-1H-indole-3-carboxamide, 2,2,2-trifluoroacetate] | 0.39 |
| CN1[C@@H]2COC[C@H]1CC(NC(=O)c1cn(-c3ncccn3)c3ccccc13)C2 (stereo partly drawn) [Example 122, N-((1R,5S,7S)-9-methyl-d3-3-oxa-9-azabicyclo[3.3.1]nonan-7-yl)-1-(pyrimidin-2-yl)-1H-indole-3-carboxamide, 2,2,2-trifluoroacetate] | 1.01 |
| CN1[C@@H]2COC[C@H]1CC(NC(=O)c1cn(-c3cccnn3)c3ccccc13)C2 (stereo partly drawn) [Example 123, N-((1R,5S,7S)-9-methyl-d3-3-oxa-9-azabicyclo[3.3.1]nonan-7-yl)-1-(pyridazin-3-yl)-1H-indole-3-carboxamide, 2,2,2-trifluoroacetate] | 0.28 |
| CN1[C@@H]2COC[C@H]1CC(NC(=O)c1nn(CC(F)(F)F)c3ccccc13)C2 (stereo partly drawn) [Example 126, N-((1R,5S,7S)-9-methyl-d3-3-oxa-9-azabicyclo[3.3.1]nonan-7-yl)-1-(2,2,2-trifluoroethyl)-1H-indazole-3-carboxamide, 2,2,2-trifluoroacetate] | 0.86 |
| CN1[C@@H]2COC[C@H]1CC(NC(=O)c1cn(CCF)c3ccccc13)C2 (stereo partly drawn) [Example 127, 1-(2-fluoroethyl)-N-((1R,5S,7S)-9-methyl-d3-3-oxa-9-azabicyclo[3.3.1]nonan-7-yl)-1H-indole-3-carboxamide, 2,2,2-trifluoroacetate] | 0.22 |
| O=C(OC1C[C@H]2COC[C@@H](C1)N2)c1cn(-c2nccs2)c2ccccc12 (stereo partly drawn) [Example 128, (1R,5S,7S)-3-oxa-9-azabicyclo[3.3.1]nonan-7-yl 1-(thiazol-2-yl)-1H-indole-3-carboxamide, 2,2,2-trifluoroacetate] | 2.16 |
| CN1[C@@H]2COC[C@H]1C[C@@H](NC(=O)c1cn(-c3cnccn3)c3ccccc13)C2 [Example 129, N-((1R,5S,7S)-9-methyl-3-oxa-9-azabicyclo[3.3.1]nonan-7-yl)-1-(pyrazin-2-yl)-1H-indole-3-carboxamide, di-2,2,2-trifluoroacetate] | 0.64 |
| CN1[C@@H]2COC[C@H]1CC(NC(=O)c1cn(-c3cnccn3)c3ccccc13)C2 (stereo partly drawn) [Example 130, N-((1R,5S,7S)-9-methyl-d3-3-oxa-9-azabicyclo[3.3.1]nonan-7-yl)-1-(pyrazin-2-yl)-1H-indole-3-carboxamide] | 0.55 |
